The text below walks through data of publication PMC6990405, “Synthesis and Structure–Activity relationship of 1-(5-isoquinolinesulfonyl)piperazine analogues as inhibitors of Mycobacterium tuberculosis IMPDH” (European Journal of Medicinal Chemistry, 2019).

Converted amounts (≈) assume the structure as drawn. Like-named read-outs stand apart in the source and are kept apart here. Bounds are passed on as bounds.

Experiment [1] has as its target Mycobacterium thermoresistible (Mth) IMPDH ΔCBS (Mycobacterium thermoresistible) (UniProt G7CNL4). Put plainly: crystal structure.
Experiment [2] concerns M. tuberculosis. Also on record: method as in PMID 20934382. The following applies: cited from earlier work.
Experiment [3] concerns wild-type M. tuberculosis strain H37Rv. Put plainly: microbe, parasite or virus in culture. Format: cell-based.
For experiment [4], the target named is T1, Mtb IMPDH (Mycobacterium tuberculosis, UniProt P9WKI7).
T1 construct: made in house
Put plainly: IMPDH biochemical assay (inhibition of Mtb GuaB2). The note with it: for IC50: Mtb IMPDH (GuaB2) enzyme.

The mark [5] stands for this setting: Mycobacterium tuberculosis, H37RV, wild-type M. tuberculosis H37Rv, read-out: MIC90 against WT.

What is called stoichiometry N is the number of molecules, sites or subunits per partner or assembly. With “Mycobacterium thermoresistible (Mth) IMPDH ΔCBS (from UniProt G7CNL4 1-513) (enzyme)”, the stoichiometry N in experiment [1] turned out to be 4.

Turning to `O=S(=O)(c1cccc2cnccc12)N1CCNCC1` [5-(piperazin-1-ylsulfonyl)isoquinoline], the “MIC against M. tuberculosis” value in experiment [2] was “no MIC”.

One may read the IC50 as the concentration that gives 50% inhibition. Turning to `O=C(CC1CCC2(CC1)OCCO2)N1CCN(S(=O)(=O)c2cccc3cnccc23)CC1` [Compound 23, 2-(1,4-dioxaspiro[4.5]decan-8-yl)-1-[4-(isoquinoline-5-sulfonyl)piperazin-1-yl]ethan-1-one], the MIC90 in experiment [3] (setting [5]) was determined as 250 µM (≈ 115 µg/mL). Moreover, in experiment [4], the IC50 amounted to 3300 ± 200 nM.

As to `O=C(Nc1ccc2c(c1)OCO2)N1CCN(S(=O)(=O)c2cccc3cnccc23)CC1` [Compound 41, N-(benzo[d][1,3]dioxol-5-yl)-4-(isoquinolin-5-ylsulfonyl)piperazine-1-carboxamide], in experiment [3] (setting [5]), the MIC90 was 6.3 µM (≈ 2.78 µg/mL). The same compound came in with an IC50 in experiment [4] of 80 ± 5 nM.

As for `O=C(Nc1ccc2c(c1)OCO2)N1CCCN(S(=O)(=O)c2cccc3cnccc23)CC1` [Compound 44, 4-(isoquinoline-5-sulfonyl)-N-(2H-1,3-benzodioxol-5-yl)-1,4-diazepane-1-carboxamide], in experiment [3] (setting [5]), the MIC90 amounted to 12.5 µM (≈ 5.68 µg/mL). In experiment [3] (relative to compound 41), the “fold reduction in whole-cell activity” value worked out at 2 fold. The compound also showed an IC50 in experiment [4] of 600 ± 20 nM. In addition, the “fold reduction in biochemical activity” value in experiment [4] (relative to compound 41) is on record as 8 fold.

Regarding `O=C(Nc1ccc(Cl)cc1)N1CCN(S(=O)(=O)c2cccc3cnccc23)CC1` [Compound 33, N-(4-chlorophenyl)-4-(isoquinolin-5-ylsulfonyl)piperazine-1-carboxamide], in experiment [3] (setting [5]), the MIC90 was found to be 250 µM (≈ 108 µg/mL). For the same compound, in experiment [4], the midpoint of inhibition, the IC50, lay at 15000 ± 500 nM.

For the compound `O=C(OCc1ccccc1)N1CCN(S(=O)(=O)c2cccc3cnccc23)CC1` [Compound 49, Benzyl 4-(isoquinolin-5-ylsulfonyl)piperazine-1-carboxylate], in experiment [3] (setting [5]), the MIC90 worked out at 100 µM (≈ 41.1 µg/mL). This compound returned an IC50 in experiment [4] of 800 ± 50 nM.

Consider `CC(C)(C)C(=O)N1CCN(S(=O)(=O)c2cccc3cnccc23)CC1` [Compound 11, 1-[4-(isoquinoline-5-sulfonyl)piperazin-1-yl]-2,2-dimethylpropan-1-one], for which the MIC90 in experiment [3] (setting [5]) was determined as 100 µM (≈ 36.1 µg/mL). Further, in experiment [4], the IC50 was 2800 ± 200 nM.

For `Cc1cc2c(S(=O)(=O)N3CCN(C(=O)C4CCCCC4)CC3)cccc2cn1` [Compound 6, Cyclohexyl[4-(3-methylisoquinoline-5-sulfonyl)piperazin-1-yl]methanone], the MIC90 was 100 µM (≈ 40.2 µg/mL) in experiment [3] (Mycobacterium tuberculosis, H37RV, read-out: MIC90 against WT, wild-type M. tuberculosis H37Rv) and greater than 100 µM in experiment [3] (wild-type M. tuberculosis H37Rv, read-out: MIC90 against WT). The same compound registered an IC50 in experiment [4] greater than 100000 nM.

As to `N#Cc1cccc(NC(=O)N2CCN(S(=O)(=O)c3cccc4cnccc34)CC2)c1` [Compound 31, N-(3-cyanophenyl)-4-(isoquinolin-5-ylsulfonyl)piperazine-1-carboxamide], the MIC90 in experiment [3] (setting [5]) was 15.6 µM (≈ 6.58 µg/mL). This compound also gave an IC50 in experiment [4] of 150 ± 30 nM.

For the compound `O=C(Cc1ccc([N+](=O)[O-])cc1)N1CCN(S(=O)(=O)c2cccc3cnccc23)CC1` [Compound 30, 1-(4-(isoquinolin-5-ylsulfonyl)piperazin-1-yl)-2-(4-nitrophenyl)ethan-1-one], the MIC90 in experiment [3] (setting [5]) is 250 µM (≈ 110 µg/mL). In experiment [4], the IC50 is 5300 ± 200 nM.

Consider `O=C(C1CCCCCC1)N1CCN(S(=O)(=O)c2cccc3cnccc23)CC1` [Compound 14, Cycloheptyl[4-(isoquinoline-5-sulfonyl)piperazin-1-yl]methanone], for which the MIC90 in experiment [3] (setting [5]) was found to be 31.2 µM (≈ 12.5 µg/mL). This compound yielded an IC50 in experiment [4] of 830 ± 40 nM.
